{"source": "patent US4962119A", "about": "“Triazole derivatives of fenamates as antiinflammatory agents” (Warner-Lambert Company, priority 1989, dated 1990)", "tested_on": "5-Lipoxygenase", "experiment": "ARBL whole cell 5-lipoxygenase assay (inhibition of LTB4 formation in RBL-1 cells, RIA)", "format": "cell-based, rat", "conditions": "calcium ionophore A23187 (5 μM)", "source_text": "ARBL/ARBC Whole Cell 5-Lipoxygenase and Cyclcoxygenase Assays\nCells are harvested by centrifugation."}
{"molecule": "FC(F)(F)c1cccc(Nc2ccccc2-c2n[nH]c(=S)[nH]2)c1", "note": "[Example 4, 5-[2-[(3-trifluoromethylphenyl)amino]phenyl]-2,4-dihydro-3H-1,2,4-triazole-3-thione]", "values": [{"measurement": "ARBL: % inhibition of LTB4 at 16 μM", "result": "N (Less than 40% inhibiton)"}]}
